The source of these data is US7064141B1, “Method for preventing, treating or inhibiting development of simple retinopathy and preproliferative retinopathy” (Takeda Pharmaceutical Company Limited, priority 1999, dated 2006).

In one assay the test system is Retinal VEGF mRNA. As to the kind of experiment: Retinal VEGF mRNA of diabetic rats, semi-quantitative RT-PCR. Type of assay: in vivo, rat. To be noted: STZ-diabetic SHRSP rats. Here is the method:
• Compound 1: (±)-1-(cyclohexyloxycarbonyloxy) ethyl-2-ethoxy-1-[[2′-(1H-tetrazol-5-yl)biphenyl-4-yl]methyl]-1H-benzimidazole-7-carboxylate (Compound 1) Method: Streptozotocin (STZ) was intravenously injected at a dose of 30 mg/kg to 10-week old male rats (Stroke-Prone Spontaneously Hypertensive Rat:SHRSP). When 9 weeks had passed since the injection of STZ, the blood sugar values of the rats were measured. The rats were divided into 3 groups, that is, a group before the administration, a solvent-administered control group and an administered group with the compound 1 (3 mg/kg/day, p.o.). Four weeks after, the blood sugar values and the retinal potentials were measured, and then, the rats were killed by bleeding by discission of the aorta abdominalis under deep ether anesthetization so as to remove the eyeball. A suspension of the compound 1 in a 0.5% methylcellulose-containing physiological saline was orally administered to the rats once a day for 4 weeks. […]
VEGF mRNA in the retina was quantitatively determined as follows. […] The quantity of VEGF mRNA was measured from the extracted RNA by the semi-quantitative RT-PCR process (ABI PRISM 7700: Perkin Elmer) using two kinds of fluorescent probes (FAM: VEGF, and VIC: β-action). The quantity of VEGF mRNA was corrected by the quantity of β-action mRNA and calculated provided that the quantity of VEGF mRNA of SD rat retina was defined as 1.

The test system of a further assay is Diabetic Rats. As to the kind of experiment: Retinal potential: latency of oscillatory potential peaks of diabetic rats. Type of assay: in vivo, rat. To be noted: STZ-diabetic SHRSP rats. The protocol: • Compound 1: (±)-1-(cyclohexyloxycarbonyloxy) ethyl-2-ethoxy-1-[[2′-(1H-tetrazol-5-yl)biphenyl-4-yl]methyl]-1H-benzimidazole-7-carboxylate (Compound 1) Method: Streptozotocin (STZ) was intravenously injected at a dose of 30 mg/kg to 10-week old male rats (Stroke-Prone Spontaneously Hypertensive Rat:SHRSP). When 9 weeks had passed since the injection of STZ, the blood sugar values of the rats were measured. The rats were divided into 3 groups, that is, a group before the administration, a solvent-administered control group and an administered group with the compound 1 (3 mg/kg/day, p.o.). Four weeks after, the blood sugar values and the retinal potentials were measured, and then, the rats were killed by bleeding by discission of the aorta abdominalis under deep ether anesthetization so as to remove the eyeball. A suspension of the compound 1 in a 0.5% methylcellulose-containing physiological saline was orally administered to the rats once a day for 4 weeks. On the other hand, 23-week old SHRSP rats were used as an untreated group.
The retinal potential was measured by the following method. The subject animal was subjected to dark adaptation in a dark room for 90 to 120 minutes, and then, anesthetized with ketamine hydrochloride (50 mg/kg, i.m.) and immobilized with xylazine (2 mg/kg, i.m.). The limb and the head of the subject animal were fixed with a string. Mydriatic was dropped on the left eyeball to widen the pupil, and a contact lens type electrode was placed on the cornea using a contact lens-wearing auxiliary. A xenon lamp (1.2 joules) was set at a position 10 cm distant in the forward direction from the eye to be tested (the left eye), and light stimuli were controlled by a light stimulator (SLS-3100 manufactured by Nippon Koden K.K.). The retinal potential generated by light stimuli (0.5 Hz, 16 times) was amplified by a Neuropack (MEB-5100 manufactured by Nippon Koden K.K., Low cut 0.5 Hz, and sweeping time: 200 msec). The results were added and averaged. The latency of oscillatory potential peaks (O1, O2 and O3) was counted from the resultant waveforms.

[1] abbreviates: 3 mg/kg/day p.o. for 4 weeks, n = 4, average ± standard deviation.

As to `CCOc1nc2cccc(C(=O)OC(C)OC(=O)OC3CCCCC3)c2n1Cc1ccc(-c2ccccc2-c2nnn[nH]2)cc1` (racemic) [Compound 1, (±)-1-(cyclohexyloxycarbonyloxy) ethyl-2-ethoxy-1-[[2′-(1H-tetrazol-5-yl)biphenyl-4-yl]methyl]-1H-benzimidazole-7-carboxylate], the “Retinal VEGF mRNA (VEGF mRNA of SD rat determined as 1)” value in the assay on Retinal VEGF mRNA (3 mg/kg/day p.o. for 4 weeks, n = 4, corrected by β-action mRNA, average ± standard deviation) came out at 0.99 ± 0.14. In addition, the “Quantity of VEGF mRNA in the retinal tissue, in words” value in the assay with Retinal VEGF mRNA (3 mg/kg/day p.o., 4 weeks) is “significantly decreased”. In the assay with Diabetic Rats (setting [1]), the “Latency of oscillatory potential peak O1” value is on record as 23.81 ± 0.42 ms, the “Latency of oscillatory potential peak O2” value came out at 32.88 ± 1.17 ms and the “Latency of oscillatory potential peak O3” value came to 43.39 ± 1.86 ms. In the assay with Diabetic Rats (3 mg/kg/day p.o., 4 weeks), the “Latency of oscillatory potential peaks O1, O2 and O3, in words” value was “latency was reduced in any of the O1, O2 and O3”. Moreover, in the assay on Diabetic Rats (3 mg/kg/day p.o., 4 weeks, Dunnett's t Test), the “Latency of oscillatory potential peak O1 compared with the control group, in words” value was “significant improvement”.
